Laboratory results reported in patent US10150734B2, “Solid forms of 2-(5-(3-fluorophenyl)-3-hydroxypicolinamido)acetic acid, compositions, and uses thereof” (Akebia Therapeutics, Inc., priority 2015, dated 2018).
Converted amounts (≈) assume the structure as drawn. “Also recorded” adds a separate entry of the source.

Experiments:
[1] = Competitive slurry experiment of Forms A, D and G; type: physicochemical; conditions: mixture of Forms A, D and G slurried in Water, RT
Description: To evaluate relative stability of the anhydrate polymorphs, competitive slurry experiments of Forms A, D and G were conducted as described in below and summarized in Table 12. In all three solvent systems, water, 1:2 v/v IPAc/heptane, and toluene, Form A was the final polymorph after equilibration for 8 days.
Slurry experiments were performed using the following procedure: a mixture of Form A (˜12.0 mg, Compound 1), Form D (˜12.0 mg) and Form G (˜12.0 mg) were weighed into a 20.0 mL clear vial equipped with magnetic stir bars (Table 12). Water, IPAc/Heptane (1:2 V/V) and toluene were used as the solvent systems for these competitive slurry experiments. Three selected solvents, 1.0 mL, were added to achieve free-flowing slurry and allowed to equilibrate at room temperature.

[2] = Aqueous solubility (slurry in deionized water at room temperature, filtrate by HPLC, solids by XRPD)
Description: Approximately 14-25 mg of Forms A, D and G were transferred to 20 mL vials equipped with magnetic stir bars. 1.0 mL of deionized water was added and the resulting free flowing slurry was allowed to equilibrate over 1 and 7 days period with stirring at room temperature. […] The filtrates were analyzed by HPLC to determine solubility.

[3] = Thermal stability experiments (solid stored at 60 °C; XRPD and HPLC); conditions: for Physical form / XRPD pattern change after storage at 60 °C for seven days (in words) / Chemical stability / degradation by HPLC after storage at 60 °C for seven days (in words): solid
[4] = Single form slurry experiments of Forms A, D and G; type: physicochemical; conditions: for Outcome in the single form and competitive slurry experiments (in words): ambient temperature, all tested conditions
Description: Single form slurry experiments were conducted for Forms A, D and G in three solvents stems, water, 1:2 v/v IPAc/heptane, and toluene to evaluate their physical form stability as a single polymorph (Table 14). Form A remained unchanged at six day time point. […] Form D remained unchanged for three days in water but converted to a mixture A and D at six days. In 1:2 IPAc/heptane and toluene, Form D converted to a mixture of A and D at three days and then Form A at six days. […] Form D is also a metastable polymorph but its conversion to Form A is kinetically slower than Form G. The conversion was the slowest in water partly due to low solubility.
Approximately 10-20 mg of Forms A, D and G were weighed into 8 mL clear vials equipped with magnetic stir bars (Table 14). Water, IPAc/Heptane (1:2 V/V) and toluene were used as the solvent systems for these competitive slurry experiments. Three selected solvents, 1.0 mL, were added to achieve free-flowing slurry and allowed to equilibrate at room temperature. All slurries will be isolated via centrifuge filtration after three day and six days of equilibration.

[5] = Dynamic vapour sorption (moisture sorption) with XRPD of post-DVS material; type: physicochemical; conditions: for Moisture Sorption 60% RH / Moisture adsorbed at 60% RH / Moisture Sorption 90% RH: 25.0 °C; for XRPD analysis of the post-DVS material: after DVS and drying at 60 °C for 2 hours; for Hygroscopicity (in words): from DVS moisture sorption
Description: Dynamic vapour sorption experiment was carried out by first holding the sample at 40% RH and 25.0° C. until an equilibrium weight was reached or for a maximum of four hours. The sample was then subjected to an isothermal (at 25.0° C.) adsorption scan from 40 to 90% RH in steps of 10%. The sample was allowed to equilibrate to an asymptotic weight at each point for a maximum of four hours. Following adsorption, a desorption scan from […] to 5% RH (at 25.0° C.) was run in steps of 10% again allowing a maximum of four hours for equilibration to an asymptotic weight. An adsorption scan was then performed from 0 to 40% RH in steps of 10%. The sample was then dried for no less than two hours at 60.0° C. and the resulting solid analyzed by XRPD.

[6] = Competitive slurry of calcium, potassium and sodium salts in acetone; type: physicochemical
Description: Calcium, sodium, and potassium salts were used to setup different competitive slurry experiments. For competitive slurry of calcium salts (˜5-6 mg of Salt I and Salt II) were weighed into a 5.0 mL clear vial equipped with magnetic stir bars. These steps were repeated for potassium salt material (˜5-6.5 mg of Salt III) and sodium salt materials (˜2.6-6.4 mg of Salt IV and Salt V). […] All slurries, 400 μL, were filtered through 0.45 micron centrifuge filters after one and seven days of equilibration. The solids were analyzed by XRPD to check for salt conversion (Table 36).

[7] = Stability of crystalline materials from selected salts in different humidity (XRPD); type: physicochemical; conditions: before humidity exposure
Description: Table 49 provides thermal stability data. Table 50 provides TGA thermal data.

[8] = Thermal holding (TGA thermal hold) experiments of salts, XRPD of resulting solid; type: physicochemical
[9] = as above; type: physicochemical; remark: listed apart in the source
Description: Salt I, Salt II, Salt III, Salt IV, Salt V, Salt VI, Salt VII, Salt VIII, Salt IX and Salt X were characterized to evaluate its physical form and stability.
In an effort to isolate a high melt crystal form, the material was held at 130° C. for 2 minutes followed by cooling to ambient temperature.
In an effort to isolate a high melt crystal form through a dehydration/recrystallization process, Salt IV was held at 130° C. for 2 minutes followed by cooling to ambient temperature.

[10] = Slurry of a single salt (seven days of stirring in water / acetone), XRPD; type: physicochemical
[11] = deionized water, room temperature, equilibrated with stirring, filtrate by HPLC

Row | SMILES | XRPD, Day 1 [1] | Solubility (extrapolated values based on the standard curve 0.008-0.2 mg/mL) [2, 11] [µg/mL] | HPLC (% AUC) ([3]; after storage at 60.0 °C) | Parent Material HPLC (% AUC) ([3]; before storage at 60.0 °C) | Physical form / XRPD pattern change after storage at 60 °C for seven days (in words) [3] | Chemical stability / degradation by HPLC after storage at 60 °C for seven days (in words) [3] | Outcome in the single form and competitive slurry experiments (in words) [4] | Moisture Sorption 60% RH ([5]; DVS, 60% RH) [%] | Moisture adsorbed at 60% RH ([5]; DVS, 60% RH) [wt %] | Moisture Sorption 90% RH ([5]; DVS, 90% RH) [wt %] | Weight moisture uptake at 60% RH ([5]; DVS, 60% RH) | Weight moisture uptake at 90% RH ([5]; DVS, 90% RH) | XRPD analysis of the post-DVS material [5] | Hygroscopicity (in words) [5] | Moisture Sorption ([5]; 60% RH) | Moisture Sorption ([5]; 90% RH) | other results
1 | O=C(O)CNC(=O)c1ncc(-c2cccc(F)c2)cc1O [Form A, 2-(5-(3-fluorophenyl)-3-hydroxypicolinamido)acetic acid] | A + D | 2.6 (≈ 8.96 µM) | >99.9 | >99.9 | No chemical and physical form changes | No chemical and physical form changes; also recorded: chemically stable | most stable polymorph | 0 | 0 | 6.1 | about 0 % weight | about 6.1 % weight | consistent with the starting material | moderately hygroscopic | – | – | Moisture Sorption 90% RH ([5]; DVS, 90% RH, listed as A): 6.1 wt %
2 | O=C(O)CNC(=O)c1ncc(-c2cccc(F)c2)cc1O [Form D, 2-(5-(3-fluorophenyl)-3-hydroxypicolinamido)acetic acid] | A + D | 490 (≈ 1690 µM) | >99.9 | >99.9 | maintained its chemical and physical form | maintained its chemical and physical form; also recorded: chemically stable | converted to Form A | 0.7 | 0.7 | 1.0 | about 0.7 % weight | about 1.0 % weight | consistent with the starting material | slightly hygroscopic | – | – | XRPD, Day 3 ([4]; single form slurry, IPAc/Heptane (1:2 V/V), RT): A + D; XRPD, Day 3 ([4]; single form slurry, Toluene, RT): A + D; XRPD, Day 6 ([4]; single form slurry, Water, RT, day 6): A + D; Moisture Sorption 90% RH ([5]; DVS, 90% RH, listed as D): 1.0 wt %
3 | O.O=C([O-])CNC(=O)c1ncc(-c2cccc(F)c2)cc1O.[Na+] [Salt IV] | – | – | – | – | no polymorph conversion or degradation | no polymorph conversion or degradation | – | – | 6.1 | 6.5 | – | – | consistent XRPD pattern as the starting material | moderately hydroscopic; also recorded: moderately hygroscopic | 60% RH: 6.1 wt % | 90% RH: 6.5 wt % | XRPD of solids, aliquot time point Day 1 ([6]; slurry of potassium or sodium salts in acetone + 0.05 mL water, RT, day 1): Salt V +; XRPD of solids, aliquot time point Day 7 ([6]; slurry of potassium or sodium salts in acetone + 0.05 mL water, RT, day 7): Salt V; XRPD Initial [7]: Salt IV; Form change after slurrying in water for 13 days ([2]; aqueous solubility study, 13 days): no form change; Solubility [2, 11]: 19000 µg/mL; Aqueous Solubility ([2]; deionized water, room temperature, standard curve linear range 0.008 to 0.2 mg/mL): 19000 µg/mL; Aqueous Solubility: XRPD (1 day) of solids ([2]; solid form after 1 day slurry in water): Salt IV + Extra; HPLC (% AUC) ([3]; after thermal stress at 60.0 °C): 99.9 % AUC; Parent Material HPLC (% AUC) ([3]; parent material before thermal stress): 99.9 % AUC; XRPD, aliquot time point Day 1 ([3]; solid stored at 60.0 °C, day 1): Salt IV; XRPD, aliquot time point Day 7 ([3]; solid stored at 60.0 °C, day 7): Salt IV; XRPD Post thermal hold ([8]; 180-260 °C at 10 °C/min, hold 260 °C/2 min): Salt VI; XRPD Post thermal hold, sample left on bench top, 24 hrs ([8]; 180-260 °C at 10 °C/min, hold 260 °C/2 min, then bench top 24 hrs): Salt VI; XRPD of solid after thermal hold at 260 °C ([8]; held at 260 °C): conversion to a new salt (Salt VI); XRPD Post thermal hold ([9]; 30-130 °C at 10 °C/min, hold 130 °C/2 min): Salt IV; XRPD Post thermal hold, sample left on bench top, 24 hrs ([9]; 30-130 °C at 10 °C/min, hold 130 °C/2 min, then bench top 24 hrs): Salt IV; XRPD Pre-thermal hold ([9]; before TGA thermal hold): Salt IV; XRPD of solid after thermal hold at 130 °C for 2 minutes ([9]; held at 130 °C for 2 minutes, cooled to ambient temperature): consistent with Salt IV; hydration property [5]: monohydrate; Moisture Sorption (hygroscopicity in words) ([5]; DVS, from uptake at 60% and 90% RH): (moderately
4 | O=C([O-])CNC(=O)c1ncc(-c2cccc(F)c2)cc1O.[Na+] [Salt IX] | – | – | – | – | no change in XRPD pattern | no degradation | – | – | 0.3 | 0.3 | – | – | consistent with Salt IV of Compound 1 | moderately hydroscopic | 60% RH: 0.3 wt % | 90% RH: 0.3 wt % | XRPD of solid after thermal holding experiment at 150 °C ([8]; held at 150 °C): consistent with the starting material; Form after seven days of stirring in water and acetone ([10]; water and acetone): converted to Salt VIII or Salt IV
5 | O=C([O-])CNC(=O)c1ncc(-c2cccc(F)c2)cc1O.[Na+] [Salt VIII] | – | – | – | – | no change in XRPD pattern | no degradation | – | – | 1.0 | 2.7 | – | – | consistent with the starting material | moderately hydroscopic | 60% RH: 1.0 wt % | 90% RH: 2.7 wt % | Outcome of competitive slurry of salts (in words) ([6]; acetone (50 μL water added for potassium and sodium salts), room temperature, one and seven days): stable in an acetone slurry; XRPD after seven days of stirring in acetone ([10]; acetone): no change in XRPD pattern
